This note sets out measurements from ChEMBL document CHEMBL1201862, “PubChem BioAssay data set” (2004).

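Step 1: Grow cells in 96-well plates. Step 2: Expose to compound for 48 hours at 5 concentrations. Step 3: Interpolate endpoints linearly; if unreached, use highest concentration. Here, GI50 denotes the concentration required for 50% inhibition of growth.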 The source made the active and inactive calls. No stated cut-off is given here; in the data, active = GI50 up to about 1.1 µM and inactive = higher.

Test systems include SF-539; SK-MEL-2; SK-MEL-5; MDA-MB-435; A549; UACC-257; HL-60; RXF 393; LOX IMVI; OVCAR-8; Malme-3M; UACC-62; SN12C; SF-295; HCT-15; UO-31; MOLT-4; HT-29; EKVX; HOP-92.
Holding throughout (assay): NCI-60 cell line screen, 48 h

Consider `Nc1c(OCC(=O)O)ccc2cc(S(=O)(=O)O)ccc12`, for which the GI50 in the assay with SF-539, with SK-MEL-2, with SK-MEL-5, with MDA-MB-435, with A549 and in the assay on UACC-257 was > 100 µM (inactive) throughout. For the same compound, the GI50 in the assay on HL-60, in the assay on RXF 393, in the assay on LOX IMVI, in the assay with OVCAR-8, with Malme-3M and with UACC-62 was > 100 µM (inactive) throughout. Further, the GI50 was > 100 µM (inactive) in the assay with SN12C, > 100 µM (inactive) in the assay on SF-295, more than 100 µM in the assay with HCT-15 and > 100 µM (inactive) in the assay with UO-31.
Turning to `O=c1s[s+]([O-])c2ccccc12` (centres undefined), the GI50 in the assay on SF-539, in the assay with SK-MEL-2, in the assay with SK-MEL-5, in the assay with MDA-MB-435, in the assay on A549 and in the assay with MOLT-4 was > 100 µM (inactive) throughout. In addition, the GI50 in the assay on UACC-257 was > 100 µM (inactive); in the assay with HT-29 it was > 100 µM (inactive); in the assay with HL-60 it was 46.9 µM (inactive); with LOX IMVI it was 58.3 µM (inactive); in the assay on OVCAR-8, > 100 µM (inactive); with Malme-3M, > 100 µM (inactive). In addition, the GI50 is > 100 µM (inactive) in the assay on UACC-62; > 100 µM (inactive) in the assay with EKVX; > 100 µM (inactive) in the assay with SN12C; > 100 µM (inactive) with HOP-92; > 100 µM (inactive) in the assay with SF-295; 72.9 µM in the assay with HCT-15. Also, the GI50 in the assay on UO-31 is > 100 µM (inactive).
For `CNC(=O)CNC(=O)N(C[C@@H]1CCCN1C(=O)[C@H](CC(C)C)NC(=O)OC(C)(C)C)C(C)C`, the GI50 with SK-MEL-2, in the assay with SK-MEL-5, with MDA-MB-435, with A549, in the assay with MOLT-4 and in the assay on HT-29 was > 100 µM (inactive) in each case. Besides, the GI50 in the assay on HL-60, with RXF 393, in the assay with LOX IMVI, in the assay with OVCAR-8, with Malme-3M and in the assay with UACC-62 was > 100 µM (inactive) each time. The GI50 in the assay on EKVX was > 100 µM (inactive); with SN12C, > 100 µM (inactive); in the assay with SF-295, > 100 µM (inactive); in the assay with HCT-15, more than 100 µM; in the assay with UO-31 it was > 100 µM (inactive).
Take `O=[N+]([O-])c1ccc(Cl)cc1N/N=C/c1cccc2cccnc12`: the GI50 with SF-539 was 95.1 µM (inactive); in the assay on SK-MEL-5, > 100 µM (inactive); in the assay on MDA-MB-435 it was > 100 µM (inactive); in the assay on A549, > 100 µM (inactive); in the assay with MOLT-4 it was 39.7 µM (inactive); in the assay with UACC-257, > 100 µM (inactive). Besides, the GI50 in the assay on HT-29 was > 100 µM (inactive); in the assay on HL-60, > 100 µM (inactive); with RXF 393, > 100 µM (inactive); in the assay on OVCAR-8 it was 48.2 µM (inactive); with UACC-62, > 100 µM (inactive); with EKVX, > 100 µM (inactive). The GI50 in the assay on SN12C is > 100 µM (inactive); in the assay on SF-295, > 100 µM (inactive); in the assay on HCT-15 it was more than 100 µM; in the assay on UO-31 it was 33.1 µM (inactive).
As to `CC1(c2ccc(Cl)cc2)C=C(c2ccc(Cl)cc2)C(C#N)=C(C(C#N)C#N)N1.CNC` (centres undefined), the GI50 was 19.5 µM (inactive) with SF-539; 19.5 µM (inactive) in the assay on SK-MEL-2; 14.2 µM (inactive) with SK-MEL-5; 17.5 µM (inactive) with MDA-MB-435; 19.2 µM (inactive) with A549; 13.6 µM (inactive) with MOLT-4. The GI50 is 17.5 µM (inactive) in the assay on UACC-257; 16.6 µM (inactive) in the assay with HT-29; 13.1 µM (inactive) with HL-60; 18.7 µM (inactive) in the assay with RXF 393; 17 µM (inactive) in the assay with LOX IMVI; 14.5 µM (inactive) with OVCAR-8. Also, the GI50 with Malme-3M is 14.1 µM (inactive); in the assay on UACC-62 it was 14.1 µM (inactive); in the assay with EKVX, 16.6 µM (inactive); in the assay with SN12C, 18.3 µM (inactive); in the assay with SF-295, 17.6 µM (inactive); in the assay on HCT-15 it was 15.1 µM. Besides, in the assay on UO-31, the GI50 is 16.4 µM (inactive).
On to `C=C(C)C(=O)O[C@H]1CC2=CC(CC(C)=C[C@H]3OC(=O)C(=C)C13)OC2=O` (some centres undefined), for which the GI50 in the assay on SF-539 was 29.7 µM (inactive); in the assay on SK-MEL-2, 22.1 µM (inactive); in the assay with SK-MEL-5, 68.2 µM (inactive); in the assay with MDA-MB-435, 29.3 µM (inactive); with A549, > 100 µM (inactive); in the assay with MOLT-4, 19.8 µM (inactive). For the same compound, the GI50 in the assay on UACC-257 was 25.5 µM (inactive); with HT-29, 17 µM (inactive); in the assay on HL-60, 3.65 µM (inactive); in the assay on LOX IMVI, 21 µM (inactive); in the assay with OVCAR-8, 35.8 µM (inactive); with Malme-3M, 20.2 µM (inactive). The GI50 in the assay on UACC-62 was 17.4 µM (inactive); in the assay with EKVX, 20.6 µM (inactive); in the assay with SN12C it was 22.1 µM (inactive); in the assay with HOP-92, 16.4 µM (inactive); in the assay on SF-295, > 100 µM (inactive); with HCT-15 it was 10.8 µM. Besides, the GI50 in the assay on UO-31 was > 10 µM (inactive).
Take `Cc1cccc2nc3c(=O)[nH]c(=O)nc-3n(C)c12`: the GI50 with SF-539 was 41.1 µM (inactive); in the assay on SK-MEL-2 it was 48.8 µM (inactive); in the assay with SK-MEL-5, 29.6 µM (inactive); in the assay on MDA-MB-435, 17.6 µM (inactive); in the assay with A549 it was 84.7 µM (inactive); with MOLT-4, 43 µM (inactive). Moreover, the GI50 was 34.4 µM (inactive) in the assay with UACC-257; 33.2 µM (inactive) in the assay with HT-29; 15.7 µM (inactive) in the assay with HL-60; > 100 µM (inactive) in the assay with RXF 393; 54 µM (inactive) in the assay with LOX IMVI; 52 µM (inactive) in the assay with OVCAR-8. The GI50 in the assay with Malme-3M was 21.3 µM (inactive); in the assay on UACC-62, 31.9 µM (inactive); with EKVX it was > 100 µM (inactive); in the assay on SN12C it was > 100 µM (inactive); with SF-295, 92.9 µM (inactive); with HCT-15 it was 52.8 µM.
Consider `CCOP(=O)(/C=C/n1ccc(=O)[nH]c1=O)OCC`, for which the GI50 in the assay on SF-539, in the assay with SK-MEL-2, with SK-MEL-5, in the assay on MDA-MB-435, in the assay on A549 and in the assay on MOLT-4 was > 100 µM (inactive) each time. In addition, the GI50 with UACC-257, with HT-29, with HL-60, in the assay on RXF 393, with LOX IMVI and with OVCAR-8 was > 100 µM (inactive) in each case. For the same compound, the GI50 is > 100 µM (inactive) in the assay with UACC-62; > 100 µM (inactive) in the assay with EKVX; > 100 µM (inactive) in the assay with SN12C; > 100 µM (inactive) in the assay with SF-295; more than 100 µM with HCT-15.
As for `C=CCN(C(=O)OC(C)(C)C)C1=CC2C(C)=CN(S(=O)(=O)c3ccccc3)C2C(OCc2ccccc2)=C1` (centres undefined), the GI50 in the assay on SK-MEL-2, with SK-MEL-5, with MDA-MB-435, in the assay with A549, in the assay on MOLT-4 and in the assay on UACC-257 was > 100 µM (inactive) throughout. The GI50 is 13.4 µM (inactive) in the assay on HT-29; > 100 µM (inactive) in the assay with HL-60; 36.1 µM (inactive) in the assay on RXF 393; > 100 µM (inactive) in the assay with LOX IMVI; > 100 µM (inactive) in the assay on OVCAR-8; > 100 µM (inactive) with Malme-3M. For the same compound, the GI50 with UACC-62 is > 100 µM (inactive); with EKVX, > 100 µM (inactive); in the assay with SN12C it was > 100 µM (inactive); with SF-295, > 100 µM (inactive); in the assay with HCT-15, more than 100 µM; in the assay with UO-31, > 100 µM (inactive).
Regarding `CCOC(=O)c1[nH]c2ccccc2c1C(=O)C[C@H](NC(=O)C(F)(F)F)C(=O)OC`, the GI50 in the assay with SF-539, in the assay on SK-MEL-2, in the assay with SK-MEL-5, in the assay with MDA-MB-435, in the assay with A549 and in the assay on MOLT-4 was > 100 µM (inactive) each time. Moreover, the GI50 in the assay with UACC-257, in the assay with HT-29, in the assay on HL-60, in the assay with LOX IMVI, with OVCAR-8 and with Malme-3M was > 100 µM (inactive) throughout. Also, the GI50 in the assay on EKVX was > 100 µM (inactive); in the assay on SN12C, > 100 µM (inactive); in the assay on HOP-92, > 100 µM (inactive); with SF-295, > 100 µM (inactive); in the assay with HCT-15, more than 100 µM; in the assay with UO-31, 75.3 µM (inactive).
As for `COc1nc(C(=O)NNC(=O)c2nc(OC)c3ccccc3c2-c2ccccc2)c(-c2ccccc2)c2ccccc12`, the GI50 in the assay with SK-MEL-2, in the assay with SK-MEL-5, in the assay with MDA-MB-435, in the assay with A549, in the assay on MOLT-4 and in the assay on UACC-257 was > 100 µM (inactive) throughout. For the same compound, the GI50 in the assay on HT-29, in the assay with HL-60, in the assay with RXF 393, in the assay on OVCAR-8, in the assay with Malme-3M and with UACC-62 was > 100 µM (inactive) throughout. In addition, the GI50 with EKVX is > 100 µM (inactive); in the assay with SN12C, > 100 µM (inactive); with SF-295, > 100 µM (inactive); in the assay with HCT-15, more than 100 µM; with UO-31, > 100 µM (inactive).
